According to PubChem BioAssay (NCI):
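Results reflect a 48-hour exposure of cells in 96-well plates to compound at five concentrations. At the GI50, growth is halved. TGI: total growth inhibition.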

Key:
Test in all cases: growth of human tumour cells (NCI), 48 h
[1] = test system: CAKI-1 renal
[2] = test system: IGROV1 ovarian
[3] = test system: MDA-N
[4] = test system: NCI-H226 lung
[5] = test system: NCI-H522 lung
[6] = test system: SK-MEL-2 melanoma
[7] = test system: T-47D breast
[8] = test system: TK-10 renal
[9] = test system: NCI-H460 lung
[10] = test system: SNB-19 CNS

`c1ccc2c(c1)CC1COc3ccccc3C1O2` (stereo not given) showed a TGI [1] of over 100 µM, a TGI [2] of over 100 µM and a TGI [3] of over 100 µM. It also gave a TGI [4] of over 100 µM, a TGI [5] of over 100 µM and a TGI [6] of over 100 µM. The TGI [7] was over 100 µM and the TGI [8] was over 100 µM.
`Cc1nc2ccccc2n1Cc1nnc(N)o1` gave a TGI [2] of over 100 µM, a TGI [3] of over 100 µM and a TGI [9] of over 100 µM. It also gave a TGI [5] of over 100 µM, a TGI [6] of over 100 µM and a TGI [10] of over 100 µM. For the same compound, the TGI [7] was over 100 µM and the TGI [8] was over 100 µM.
Compound `Cc1cc2nc(N3C(=O)/C(=C/c4ccc(Cl)cc4)N=C3c3ccccc3)sc2cc1C` has a TGI [1] of over 100 µM, a TGI [2] of over 100 µM and a TGI [3] of 30.3 µM. For the same compound, the TGI [9] was over 100 µM, the TGI [6] was 89.8 µM and the TGI [10] was over 100 µM. It also gave a TGI [7] of over 100 µM and a TGI [8] of over 100 µM.
`O=[N+]([O-])c1ccc(Cl)cc1N/N=C/c1cccc2cccnc12` showed a TGI [1] of over 100 µM, a TGI [2] of over 100 µM and a TGI [3] of over 100 µM. For the same compound, the TGI [9] was over 100 µM, the TGI [5] was over 100 µM and the TGI [10] was over 100 µM. For the same compound, the TGI [7] was over 100 µM and the TGI [8] was over 100 µM.
Work on `CC1C(=O)O[C@H]2C1CC[C@@]1(C)[C@H](O)CC[C@@]13C[C@]2(O)OO3` (stereo not given in full) yielded a TGI [1] of over 100 µM, a TGI [2] of over 100 µM and a TGI [4] of over 100 µM. For the same compound, the TGI [9] was over 100 µM, the TGI [10] was over 100 µM and the TGI [8] was over 100 µM.
Work on `CCOP(=O)(OCC)C1=NC=CC=CC1n1c(-c2ccccc2)nn(CC)c1=O` (stereo not given) yielded a TGI [1] of over 100 µM, a TGI [2] of over 100 µM and a TGI [4] of over 100 µM. It also gave a TGI [9] of over 100 µM, a TGI [5] of over 100 µM and a TGI [6] of over 100 µM. The TGI [10] was over 100 µM and the TGI [8] was over 100 µM.
Work on `O=C1c2ccccc2-c2nc(/C=C/c3ccccc3)cc3c2c1nc1ccccc13` yielded a TGI [1] of over 100 µM, a TGI [2] of over 100 µM and a TGI [4] of over 100 µM. It also gave a TGI [5] of 30.2 µM, a TGI [6] of over 100 µM and a TGI [10] of over 100 µM. The TGI [7] was over 100 µM and the TGI [8] was over 100 µM.
For `CC(NC(C#N)CC12CC3CC(CC(C3)C1)C2)c1ccccc1` (stereo not given), the TGI [1] was over 100 µM, the TGI [2] was over 100 µM and the TGI [3] was over 100 µM. The TGI [9] was 67.1 µM, the TGI [5] was over 100 µM and the TGI [10] was over 100 µM. For the same compound, the TGI [7] was over 100 µM and the TGI [8] was over 100 µM.
`CSc1nc2c(=O)n(-c3ccccc3)c(=S)n(-c3ccccc3)c2s1` gave a TGI [2] of over 100 µM, a TGI [3] of over 100 µM and a TGI [4] of 86.3 µM. For the same compound, the TGI [9] was over 100 µM, the TGI [5] was over 100 µM and the TGI [6] was over 100 µM. The TGI [10] was 64.7 µM, the TGI [7] was over 100 µM and the TGI [8] was over 100 µM.
`CC1(C)CC2(C)CC1CC2NC(=O)CCN1CCOCC1` (stereo not given) showed a TGI [1] of over 100 µM, a TGI [2] of over 100 µM and a TGI [3] of over 100 µM. The TGI [4] was over 100 µM, the TGI [9] was over 100 µM and the TGI [5] was over 100 µM. For the same compound, the TGI [10] was over 100 µM, the TGI [7] was over 100 µM and the TGI [8] was over 100 µM.
In the case of `O=C1ON=C2C3CC4CC12CC1(C3)C(=O)ON=C41`, the TGI [1] is reported as over 100 µM, the TGI [2] is reported as over 100 µM and the TGI [3] is reported as over 100 µM. For the same compound, the TGI [4] was over 100 µM, the TGI [9] was over 100 µM and the TGI [5] was over 100 µM. The TGI [6] was over 100 µM and the TGI [10] was over 100 µM.
Compound `CS(=O)(=O)OCCCOS(C)(=O)=O` has a TGI [2] of over 100 µM, a TGI [4] of over 100 µM and a TGI [9] of over 100 µM. It also gave a TGI [5] of over 100 µM, a TGI [6] of over 100 µM and a TGI [10] of over 100 µM. It also gave a TGI [8] of over 100 µM.
In the case of `C(=C\c1cc(-c2ccc3ccccc3n2)nc2ccc3ccccc3c12)/c1ccc2ccccc2n1`, the TGI [1] is reported as over 100 µM, the TGI [2] is reported as over 100 µM and the TGI [3] is reported as over 100 µM. The TGI [4] was over 100 µM, the TGI [9] was over 100 µM and the TGI [10] was over 100 µM. It also gave a TGI [8] of over 100 µM.
In the case of `c1ccc(-c2cc(-c3cccs3)c(-c3cccs3)o2)cc1`, the TGI [1] is reported as over 100 µM, the TGI [2] is reported as over 100 µM and the TGI [3] is reported as over 100 µM. For the same compound, the TGI [4] was over 100 µM, the TGI [9] was over 100 µM and the TGI [6] was over 100 µM. For the same compound, the TGI [10] was over 100 µM, the TGI [7] was over 100 µM and the TGI [8] was over 100 µM.
With `Clc1c(C(Cl)(Cl)Cl)nsc1N1CCCCC1` the TGI [1] was 55.2 µM, the TGI [2] was over 100 µM and the TGI [3] was over 100 µM. The TGI [4] was 36.2 µM, the TGI [9] was over 100 µM and the TGI [10] was 69.7 µM. The TGI [8] was over 100 µM.
`CCc1nc2ccc(C(F)(F)F)cc2[nH]c1=O` gave a TGI [1] of over 100 µM, a TGI [3] of over 100 µM and a TGI [4] of over 100 µM. It also gave a TGI [9] of over 100 µM, a TGI [6] of over 100 µM and a TGI [10] of over 100 µM. For the same compound, the TGI [8] was over 100 µM.
`C=C1C(=O)O[C@@H]2[C@H](O)[C@@H](C)[C@@H]3C=CC(=O)[C@@]3(C)[C@H](OC(=O)C=C(C)C)[C@H]12` was tested, and the TGI [1] was 1.74 µM, the TGI [2] was 4.48 µM and the TGI [4] was 4.17 µM. For the same compound, the TGI [9] was 6.02 µM, the TGI [5] was 0.4 µM and the TGI [6] was 2.84 µM. The TGI [10] was 17.2 µM.
In the case of `Oc1ccc(C#CCOc2ccccc2)cc1CNCCN(Cc1ccccn1)Cc1ccccn1`, the GI50 [1] is reported as 1.33 µM, the TGI [1] is reported as 2.75 µM and the GI50 [2] is reported as 0.45 µM. For the same compound, the TGI [2] was 1.66 µM, the GI50 [4] was 1.34 µM and the TGI [4] was 3.1 µM. For the same compound, the GI50 [9] was 0.538 µM, the TGI [9] was 2.38 µM and the GI50 [5] was 2.07 µM. It also gave a TGI [5] of 6.67 µM, a GI50 [6] of 2.08 µM and a TGI [6] of 4.85 µM. The GI50 [10] was 0.797 µM, the TGI [10] was 7.67 µM and the GI50 [7] was 2.88 µM. For the same compound, the TGI [7] was 13.8 µM, the GI50 [8] was 1.22 µM and the TGI [8] was 3.06 µM.
